In patent US20040266849A1, “Therapeutic compounds for treating dyslipidemic conditions” (priority 2004, published 2004):

Tested on: ABCA1 mRNA
Test: Induction of ABCA1 mRNA levels in human primary macrophages
Assay type: cell-based
Conditions: Primary macrophage, 18 h + 6 h, vs DMSO control, read-out: Fold Induction of ABCA1 mRNA (Mean ± SEM)
Protocol: Induction of ABCA1 mRNA levels
Human Primary Macrophages were used to test the ability of LXR ligands to induce the expression of ABCA1 mRNA. The collection and purification of monocytes and their subsequent differentiation into macrophages by culturing in Teflon jars for 7-9 days was performed according to Wright and Silverstein J. Exp. Med. V156, October 1982 pp. 1149-1164. Cells were harvested from the Teflon jars and seeded into appropriate vessels in RPMI1640 plus 12% human serum and antibiotics. Cells were allowed to recover overnight before treatment. Treatment was for 18 hours with the described compounds, followed by a re-application of fresh compounds for an additional 6 hours in DMEM minus Phenol Red with 10% charcoal stripped FCS. The cells were harvested and total RNA prepared using the phenol/guanidine isothiocyanate method as supplied and described by Molecular Research Center, Inc. (TRI REAGENT® Cat. No. TR 118). ABCA1 mRNA levels in the total RNA were measured using the TaqMan® mRNA quantitation system, following protocols published by the manufacturer (Perkin-Elmer). The oligonucleotide PCR primers used to detect ABCA1 were: […]
The oligonucleotide probe used was:
ABCA1 mRNA levels in each sample were normalized to the mRNA levels for the 23 kDa highly basic protein. The oligonucleotide PCR primers used to detect the 23 kDa highly basic protein were: […]

| SMILES | fold induction at 10 µM | fold induction at 0.1 µM (0.1 μM) | fold induction at 1 µM (1.0 μM) |
| --- | --- | --- | --- |
| CC(C)CC[C@@H](O)[C@@H](C)[C@H]1CC[C@H]2[C@@H]3CC=C4C[C@@H](O)CC[C@]4(C)[C@H]3CC[C@]12C [22-(R)-hydroxycholesterol, reference compound] | 8 ± 1.37 | – | – |
| CCCc1c(OCCCN(C)C(=O)CC(C)(C)CC(=O)O)ccc2c(C(F)(F)F)noc12 [Compound (3d)] | 13.6 ± 1.1 | 0.9 ± 0.2 | 3.3 ± 0.3 |
